Measured values published in patent publication US10913933B2, “Bioengineered liver constructs and methods relating thereto” (Wake Forest University Health Sciences, priority 2013, dated 2021).

System: bioengineered liver organoids
Settings: human, 48 h
Method: For hepatocyte functional analysis, culture medium was collected after the three week incubation. The media was stored at −80° C. until it was used for analysis. For analyzing albumin synthesis, albumin ELISA assay (Bethyl Laboratories Inc.) was carried out on each samples in triplicates. The albumin concentrations were normalized per mg of DNA. The media was also analyzed in the same fashion for urea secretion using a Quantichrome™ Urea Assay Kit (BioAssay Systems, Inc.). […] After 48 hours, media samples were collected and analyzed by mass spectrometry (FIGS. 3C and 3D), and compared with standards of individual metabolites (FIGS. 3A and 3B).
In a second experiment, the liver organoids were prepared as described above in Example 1, Section A using LPC seeding and maintenance media. Alternatively, the organoids can be prepared using minimal LPC medium or hFLP medium instead. After seeding with hFLPCs, the discs were cultured for 3 weeks, with harvesting of cells at 1 week and 3 weeks for immunohistochemical and molecular analysis. Assays assessing albumin and urea synthesis and IHC analyses were performed as described above. Gene expression analyses were performed by RT-PCR after harvesting the organoids. Drug metabolism activity in the organoids was assessed after 1 week and 3 weeks of culturing. […] After 3, 6, 12, and 24 hours, media samples were collected and analyzed by mass spectrometry.

## CCOc1ccc2ccc(=O)oc2c1 [7-ethoxycoumarin]
  Phase-1 metabolites found in media: 7-hydroxycoumarin
